According to US6927035B1, “Antiuracil monoclonal antibody” (Taiho Pharmaceutical Co., LTD, priority 1999, dated 2005):
In brackets after ≈: the same amount, converted by molar mass.

Experiments:
[1] = system: monoclonal antibody of the present invention (CMU-1); assay: indirect competitive inhibition ELISA, cross reactivity test with monoclonal antibody CMU-1; type: binding, mouse; details: for percent absorption (reactivity) with monoclonal antibody CMU-1: compound final concentration 0.5 mg/mL, uracil-BSA coated plate, absorbance at 415 nm; for ED30 (concentration when the percent absorption reached 30%) / dose-dependent response of the antibody to the compound / binding ability relative to pseudouridine: monoclonal antibody CMU-1; for binding ability relative to pseudouridine: ratio of ED30 values
Procedure: Into a 96-well immunoplate, uracil-BSA complex (10 μg/mL as reduced to BSA) was placed at 50 μL/well, and allowed to stand overnight at 4° C. Subsequently, the immunoplate was washed 7 times with PBS containing 0.1% polyoxyethylene(20) sorbitan monolaurate (product of Wako Pure Chemical Industries, Ltd.; a product equivalent to Tween 20) (pH 7.3-7.7, product of Nissui Chemical; hereinafter referred to as PBS-T). Subsequently, 0.2% gelatin (200 μL) was added to each well, and the immunoplate was left for 2 hours at 37° C., or overnight at 4° C.
Subsequently, the immunoplate was washed five times with PBS-T, and one of the below-described samples (50 μL/well) was added to the immunoplate, which was then left for 1 hour at 37° C. • (i) a reaction mixture prepared by mixing the supernatant of the hybridoma culture obtained in Example 3 (hereinafter referred to as the hybridoma culture supernatant) (30 μL) and PBS (30 μL) for reaction at 37° C. for one hour; • a (ii) a reaction mixture obtained by mixing the hybridoma culture supernatant (30 μL) and a solution (30 μL) of uracil in PBS (uracil concentration: 1 mg/mL) for reaction at 37° C. for one hour; and • (iii) 1 μg/mL healthy mouse IgG (product of Biological). Subsequently, the wells were washed five times with PBS-T, and to each well was added alkaline-phosphatase-labeled (AP-labeled) anti-mouse-multivalent-immunoglobulin antibody (product of Sigma), which had been 1,000-fold diluted with 0.1% gelatin, (50 μL). Subsequently, the mixture was allowed to stand for one hour at 37° C. Subsequently, the wells were washed five times with PBS-T. A solution of disodium p-nitrophenylphosphate (product of Wako Chemical Industries, Ltd.) dissolved in substrate buffer (1 mg/mL) was added to each well (100 μL/well), and left for 30 minutes at 37° C. To the reaction mixtures, 2N NAOH (50 μL/well) was added and then mixed by use of a platemixer, to thereby stop the reaction. Absorbance at 415 nm was measured by use of a microplate reader.
The percent absorption was calculated by use of the following equation: [formula] wherein, • ODPBS: Absorbance measured by means of ELISA for a sample in which the hybridoma culture supernatant had been pre-treated only with PBS), • ODuracil: Absorbance measured by means of ELISA for a sample in which the hybridoma culture supernatant had been pre-treated with uracil in PBS), and • ODcontrol: Absorbance measured in ELISA of a sample treated only with heal thy mouse IgG).
By use of the hybridoma culture supernatant obtained from the above-described incubation, the reactivity of the monoclonal antibody, CMU-1, of the present invention was studied through the indirect competitive inhibition ELISA described in Example 4.
Specifically, an aliquot (50 μL) of uracil-BSA complex (10 μg/mL) was placed in each well of a 96-well immunoplate (Immunoplate I, product of Nunc), and allowed to stand overnight at 4° C. Each well was washed five times with PBS-T (200 μL) containing 0.1% Tween 20. Subsequently, to each well of the immunoplate, PBS (200 μL) containing 0.2% gelatin serving as a blocking agent was added, and the mixture was allowed to stand overnight at 4° C. Each well was again washed five times with PBS-T, to thereby prepare a plate.
Meanwhile, each of the follow samples: • (i) a mixture of the aforementioned hybridoma culture supernatant (30 μL) and PBS (30 μL); • (ii) a reaction mixture obtained by mixing the hybridoma culture supernatant (30 μL) and PBS (30 μL) containing uracil at a concentration of 0.03-1.0 mg/mL and causing reaction to proceed at 37° C. for one hour; and • (iii) […] healthy mouse IgG (product of Biologicals) was added to a 96-well plate to which the above antigen had been adsorbed (50 μL/well), and the plate was left to stand for one hour at 37° C. […]

[2] = system: monoclonal antibody (SU-1) derived from hybridoma FERM BP-6141; assay: indirect competitive inhibition ELISA, cross reactivity test with comparative monoclonal antibody SU-1; type: binding; details: compound final concentration 0.5 mg/mL; uracil-BSA coated plate; absorbance at 415 nm
Procedure: Meanwhile, each of the follow samples: • (i) a mixture of the aforementioned hybridoma culture supernatant (30 μL) and PBS (30 μL); • (ii) a reaction mixture obtained by mixing the hybridoma culture supernatant (30 μL) and PBS (30 μL) containing uracil at a concentration of 0.03-1.0 mg/mL and causing reaction to proceed at 37° C. for one hour; and • (iii) […] healthy mouse IgG (product of Biologicals) was added to a 96-well plate to which the above antigen had been adsorbed (50 μL/well), and the plate was left to stand for one hour at 37° C. Subsequently, the plate was washed five times with PBS-T, and to each well, aliquots (50 μL) of AP-labeled anti-mouse antibody (serving as the second antibody, product of Sigma), which had been 1,000-fold diluted with PBS containing 0.1% gelatin, were added, and the mixtures were allowed to stand for one hour at 37° C. Subsequently, each well was washed five times with PBS-T. An enzyme substrate buffer solution (p-nitrophenylphosphate, 1 mg/mL, pH 9.8) was added to each well (100 μl/well), and left to stand for 30 minutes at 37° C. To the reaction mixtures, 2N NaOH ([…]) was added, to thereby stop the reaction. Absorbance at 415 nm was measured by use of a microplate reader. For comparison, the same procedure was independently performed on hybridoma FERM BP-6141 described in PCT publication No. WO99/20748. The percent absorption was calculated from the above-described equation.
In a manner similar to that of Example 7, reactivity of the monoclonal antibody of the present invention with other compounds was investigated. Specifically, the procedure of step (ii) of Example 7 for investigating inhibition with uracil was repeated, except that pseudouridine, dihydrouracil, dihydrothymine, thymine, cytosine, or N-carbamyl-β-alanine (1 mg/mL) was used instead of uracil (1 mg/mL), to thereby investigate reactivity of the monoclonal antibody of the present invention with uracil compounds. As a comparative antibody, a monoclonal antibody (SU-1) derived from hybridoma “FERM BP-6141” described in WO 99/20748 was used.

[3] = system: monoclonal antibody for psuedouridine; details: prior art antibody used for diagnosing a progressive cancer; cited from earlier work

Compound | percent absorption (reactivity) with monoclonal antibody CMU-1 [1] | ED30 (concentration when the percent absorption reached 30%) [1] [µg/mL] | dose-dependent response of the antibody to the compound [1] | concentration range in which the compound is detected ([1]; monoclonal antibody CMU-1, FIG. 1) [mg/mL] | binding ability relative to pseudouridine [1] [times] | percent absorption (reactivity) with comparative monoclonal antibody SU-1 [2] [%] | reactivity with the monoclonal antibody for pseudouridine [3]
O=c1cc[nH]c(=O)[nH]1 [Uracil] | 95-96% | 30 (≈ 268 µM) | exhibited dose-dependent response | 0.005 to 0.5 | 13 | 41 | 30-40%
O=c1[nH]cc([C@@H]2O[C@H](CO)[C@@H](O)[C@H]2O)c(=O)[nH]1 [Pseudouridine] | 32% | 390 (≈ 1600 µM) | did exhibit dose-dependent response |  |  | 26 | 95-99%
O=C1CCNC(=O)N1 [Dihydrouracil] | 8% |  | no dose-dependent response |  |  | 2 | 
NC(=O)NCCC(=O)O [N-Carbamyl-β-alanine] | 8% |  | no dose-dependent response |  |  | 91 | 
CC1CNC(=O)NC1=O (stereo not shown) [Dihydrothymine] | 22% |  | no dose-dependent response |  |  |  | 
Cc1c[nH]c(=O)[nH]c1=O [Thymine] | 91-97% | 15 (≈ 119 µM) | exhibited dose-dependent response |  | 26 | 5 | 
Nc1cc[nH]c(=O)n1 [Cytosine] | 15% |  | no dose-dependent response |  |  | 15 | 
